The record followed here is patent US5405857A, “3-substituted 1,2,3,4,-oxatriazole-5-imine compounds, a process for the preparation thereof and a pharmaceutical preparation containing said compounds” (A/S GEA Farmaceutisk Fabrik, priority 1991, dated 1995).

Usually LD50 stands for the dose at which mortality reaches 50%. The term EC50 denotes the concentration that produces a half-maximal response. The term IC50 denotes the concentration that gives 50% inhibition.

Each structure is given as a SMILES string. Structures can show the parent of a compound that is named as a salt. Where two headings read alike, the source gives them in different places.

A short description of one series: LD50 test, intravenous. Set-up: species or system mice. Particulars: mouse, in vivo, single injection, read-out: LD50 with 95% confidence limits. As for the experimental part:
(§1) Two tests were carried out on male rats, namely a determination of the "maximum tolerable dose" (MTD) and a test using multiple peroral doses. In addition, a LD50 test was carried out intravenously on mice.
(According to Litchfield and Wileoxon, J. Pharmacol. Exp. Therap. 96, 99-113, 1949).
The intravenous LD50 -value was determined after one single injection of different doses of the compound prepared in Example 4.

Another series relates to pre-contracted trachea. In words: Relaxation of pre-contracted isolated trachea. Also on record: species or system guinea pig. As to conditions: Cavia porcellus; carbamylcholine 0.3 μM, Krebs buffer, 37° C. The protocol:
Compounds according to the invention were tested for their ability to relax a pre-contracted trachea. A contraction of the respiratory passages in combination with a swelling of the mucuos membrane therein presents a vital factor at asthmatic conditions. Relaxation or dilation of the contracted respiratory passages will improve the asthmatic condition.
An isolated trachea from a guinea pig is used. After preparation of a strip which has maintained the circular musculature, the organ is divided into two parts of equal size. The two tracheal strips are suspended in their respective organ bath and connected to a transducer recording the contraction and relaxation of the organ by means of a recorder. The two tracheal strips are continuously bathed in a Krebs buffer at 37° C., constantly bubbled with carbogen (95% O2 and 5% CO2). After an equilibration time of about 3 hours the organs are tested for their sensitivity (contractility) to carbamylcholin a bolus being added directly to the bath (0.3 μM). If the contraction is satisfactory, the organs are transferred to the Krebs buffer containing the same concentration of carbamylcholine. The organs are now constantly exposed to the carbamylcholine and slowly develop a permanent contraction ("asthma"). The test substances are in bolus form added directly to the organ bath. After maximum effect (relaxation) the substances are removed by washing out and the tracheal strip reverts to its permanent contraction state. […] An EC50 -value (that is the concentration relaxing the organ by 50% relative to the maximum relaxation) is calculated for each test substance by means of a linear regression analysis (log concentration (μM) as a constant ad abscissa and % relaxation as variable ad ordinate). Sodium nitroprusside (NNP) and SIN-1 are used as reference substances.

Another series has as its system PAI-1. The experiment in a line: Inhibition of plasminogen activator inhibitor (PAI-1) from blood platelets (fibrinolytic activity). In kind it is cell-based, human. Particulars: 50 μM, 60 minutes; for % Inhibition of PAI-1 activity: compared to control; for PAI-1 activity: human PRP, control 3.24. The protocol:
Compounds according to the invention were tested for their inhibition of plasminogen activator inhibitor (PAI). An established thrombus comprises aggregated platelets cohered by fibrin. The organism has a fibrinolyric system for maintaining normal physiological conditions. Endogenous plasminogen is activated to plasmin (fibrinolysin, that is a proteolytic enzyme decomposing fibrin) by means of a tissue plasminogen activator (t-PA). The platelets include the enzyme PAI-1 inhibiting the activation of plasminogen to plasmin, and thus also the decomposition of fibrin.
A general stimulation of the fibrinolytic system can cause serious hemostatic side effects (haemorrhages). A specific inhibition of PAI-1 induces an increased fibrinolysis in areas with many platelets, which is exactly the case in thrombi. As a result a thrombolytic effect is obtained.
Human PRP prepared by slight centrifugation as previously mentioned is used, but at a low temperature (4° C.). By incubation of PRP (1 ml in a plastic tube) during a slight shaking at 37° C. the PAI-1 activity is liberated, said PAI-1 activity being measured spectrophotometrically by means of a two-step procedure using commercial kits (Spectrolyse™/fibrin kit from BIOPOOL, Sweden).
The PAI-1 activity of the control PRP and PRP incubated with each of 6 compounds according to the invention and the reference substance sodium niroprusside (NNP) (50 μM of each for 60 minutes) appear from Table 6.

The target of series [1] is T1, soluble guanylate cyclase (Homo sapiens, UniProt Q02153).
T1 construct: The guanylate cyclase activity in the supernatant after incubation with and without the test substance; endogenous in cells; host or cells: human blood platelets, supernatant of homogenate
T1 sequence (Q02153 1-619): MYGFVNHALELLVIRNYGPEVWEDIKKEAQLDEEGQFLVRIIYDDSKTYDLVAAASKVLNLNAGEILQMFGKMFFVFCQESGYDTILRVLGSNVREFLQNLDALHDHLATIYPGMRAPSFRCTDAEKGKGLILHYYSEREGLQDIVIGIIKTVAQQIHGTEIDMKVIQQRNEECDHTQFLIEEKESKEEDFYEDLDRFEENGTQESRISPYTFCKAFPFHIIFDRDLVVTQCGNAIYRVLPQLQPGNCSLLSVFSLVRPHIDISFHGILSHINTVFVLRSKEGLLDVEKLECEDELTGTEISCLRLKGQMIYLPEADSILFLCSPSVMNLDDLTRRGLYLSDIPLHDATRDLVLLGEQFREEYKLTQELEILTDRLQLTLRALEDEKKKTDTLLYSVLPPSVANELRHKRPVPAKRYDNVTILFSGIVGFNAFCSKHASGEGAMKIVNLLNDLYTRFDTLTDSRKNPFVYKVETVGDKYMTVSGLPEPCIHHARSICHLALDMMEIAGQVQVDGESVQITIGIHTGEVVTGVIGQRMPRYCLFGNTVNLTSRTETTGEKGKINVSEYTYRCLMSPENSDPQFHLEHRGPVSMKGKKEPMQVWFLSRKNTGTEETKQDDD
T1 sequence (Q02108 1-690 partner): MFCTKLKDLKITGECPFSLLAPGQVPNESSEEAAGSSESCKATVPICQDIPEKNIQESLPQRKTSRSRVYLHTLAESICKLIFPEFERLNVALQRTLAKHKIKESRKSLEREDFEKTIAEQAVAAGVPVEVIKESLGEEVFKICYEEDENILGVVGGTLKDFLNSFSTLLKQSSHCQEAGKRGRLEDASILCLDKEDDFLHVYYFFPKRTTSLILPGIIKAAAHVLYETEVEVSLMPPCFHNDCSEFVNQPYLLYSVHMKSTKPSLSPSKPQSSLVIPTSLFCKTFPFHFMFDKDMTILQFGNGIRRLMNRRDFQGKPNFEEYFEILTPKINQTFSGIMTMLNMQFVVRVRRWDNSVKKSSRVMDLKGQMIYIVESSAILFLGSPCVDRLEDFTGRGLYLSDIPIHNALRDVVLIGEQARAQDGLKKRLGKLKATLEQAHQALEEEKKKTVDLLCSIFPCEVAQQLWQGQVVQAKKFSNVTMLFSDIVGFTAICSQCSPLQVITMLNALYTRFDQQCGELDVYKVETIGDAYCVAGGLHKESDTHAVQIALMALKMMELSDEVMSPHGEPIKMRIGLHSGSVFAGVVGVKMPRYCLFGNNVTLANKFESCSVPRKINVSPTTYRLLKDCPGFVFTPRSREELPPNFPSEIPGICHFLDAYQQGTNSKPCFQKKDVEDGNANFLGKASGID
In words: Stimulation of guanylate cyclase from blood platelets (RIA). Particulars: 37° C. The format is biochemical.

In the next series the test system is blood platelets. The experiment in a line: Inhibition of blood platelet aggregation (aggregometer, ADP). Particulars: Platelet, 0.05 h; human PRP, ADP 2 to 4 μM, 3 min incubation, 37° C.; read-out: IC50 (Inhibition of blood platelet aggregation). In kind it is cell-based, human (healthy testees). The protocol: Compounds according to the invention were tested for their inhibition of clumping together (aggregation) of blood platelets (thrombocytes), which is the first phase of the formation of blood clots (thrombi). Such an inhibition may prevent the formation of blood clots and inhibit the development of new thrombi after a diagnosed thrombus.
Citrate stabilized ( 0.38% of sodium citrate, final concentration) venous blood from healthy testees is used, who have not used medicine for at least 8 days. Slight centrifugation (160×g for 10 minutes) results in PRP (blood plasma rich in platelets) which is pipetted. PPP (blood plasma poor in platelets) is obtained by an intense centrifugation (3000×g for 10 minutes) of the remaining blood. The light transmission is measured by the aggregometer (CHRONOLOG). PRP allows nearly no light transmitaaion, while PPP allows complete transmission of light. The PRP is placed in the aggregometer at 37° C. while being stirred by a magnet. Addition of a pro-aggregating substance causes the PRP to aggregate gradually and an increasing light transmission takes place at the same time. At complete aggregation a light transmission corresponding to PPP is obtained. Adnosine diphosphate (ADP) is used as pro-aggregating substance, said substance representing a basic biochemical mechanism for aggregation of blood platelets. The test substances are incubated for 3 minutes in PRP placed in the aggregometer at 37° C. during magnetic stirring. A predetermined positively aggregating dosage of adenosine diphosphate (ADP) (2 to 4 μM) is then added. […] A so-called IC50 -value (that is the concentration inhibiting the aggregation by 50% relative to the control aggregation) is calculated for each test substance by linear regression analysis (log concentration μM as constant ad abscissa and % inhibition as variable ad ordinate). The following known reference substances have been used: nitroglycerine (GTN), sodium nitroprusside (NNP) and SIN-1 (the active metabolite of molsidomine).

Series [2] relates to polymorph nuclear leukocytes (PMNs), c-GMP. The experiment in a line: Stimulation of c-GMP content in PMNs. Particulars: 37° C., 10 minutes. The format is cell-based, human. As for the experimental part:
Compounds according to the invention were tested for their ability to increase the content of cyclic guanosine monophosphate (c-GMP), to inhibit the synthesis of the leukotriene B4 (LTB4), and to inhibit the chemotactical movement of polymorph nuclear leukocytes (PMN). The polymorph nuclear leukocytes play a vital part in the cellular part of the inflammation process. At diseases, such as asthma, the mucuos membrane of the respiratory passages is swollen as a result of an inflammation with a significant infiltration of polymorph nuclear leukocytes (PMN's) in particular. Particularly effective substances for the treatment of asthma are such which in addition to relaxing the musculature in the respiratory passages also have an anti-inflammatory effect on the cellular phase of the inflammatory process, that is inhibiting the leukocyte function.
Isolated human PMNs are incubated at 37° C. for 10 minutes, whereafter the content of cyclic guanosine monophosphate (c-GMP) is measured. Further, the synthesis of the LTB4 is determined after stimulation with Ca-ionophore (A23187) and the chemotaxis (controlled movement) towards FMLP (a substance attracting the polymorph nuclear leukocytes, PMNs) is determined.
Three compounds according to the invention and the reference substance SIN-1 were tested for their ability to stimulate the content of cyclic guanosine monophosphate (c-GMP).

Another series concerns male rats. As to conditions: rat, in vivo, po, 20 mg/kg. The protocol: as §1
At this test the substances were administered perorally in a dose of 20 mg per kg. as solutions or suspensions once a day for 5 days to groups of 5 animals. Clinical observations were made every day and the above hematological parameters were measured on the third day of the test.

With `[NH-]c1n[n+](-c2ccc(C(F)(F)F)cc2)no1` [Example 4], the LD50 in the series “LD50 test, intravenous” (female mice) was 81 mg/kg; in the series “LD50 test, intravenous” (male mice), 89 mg/kg.
Turning to `Cc1cccc(C)c1-[n+]1noc([NH-])n1` [Example 12], in the series on pre-contracted trachea, the EC50 is 4900 nM. Further, in the series on PAI-1, the “% Inhibition of PAI-1 activity” value amounted to 37% and the PAI-1 activity worked out at 2.04 U/10^8 platelets.
On to `Cc1cc(Cl)ccc1-[n+]1noc([NH-])n1` [Example 13, 3-(4-chloro-2-methylphenyl)-1,2,3,4-oxatriazole-5-imine hydrochloride], for which the EC50 in the series with pre-contracted trachea is 1100 nM. In addition, the results for the Guanylate cyclase activity in series [1] (0.01 μM) and in series [1] (10 μm (so in the source)) were 7642 pmole c-GMP/mg prot. × 15 minutes and 48126 pmole c-GMP/mg prot. × 15 minutes, respectively. In addition, in the series with blood platelets, the IC50 worked out at 200 nM.
Take `Cc1c(Cl)cccc1-[n+]1noc([NH-])n1` [Example 29, 3-(3-chloro-2-methylphenyl)-1,2,3,4-oxatriazole-5-imine]: the “c-GMP in PMNs” value is recorded as 209 fmole/10^6 cells in series [2] (1 μM), 859 fmole/10^6 cells in series [2] (10 μM) and 1044 fmole/10^6 cells in series [2] (100 μM). The EC50 in the series with pre-contracted trachea is 800 nM. The figures for the Guanylate cyclase activity in series [1] (0.01 μM) and in series [1] (10 μm (so in the source)) were 4407 pmole c-GMP/mg prot. × 15 minutes and 61900 pmole c-GMP/mg prot. × 15 minutes, respectively. In addition, in the series on PAI-1, the “% Inhibition of PAI-1 activity” value is recorded as 39%. The molecule also showed a PAI-1 activity with PAI-1 of 1.97 U/10^8 platelets.
Turning to `CC(=O)Oc1ccccc1C(=O)[N-]c1n[n+](-c2cccc(Cl)c2C)no1` [Example 38], the EC50 with pre-contracted trachea is 3200 nM. Further, the Guanylate cyclase activity in series [1] (0.01 μM) is reported as 1024 pmole c-GMP/mg prot. × 15 minutes. In series [1] (10 μm (so in the source)), the Guanylate cyclase activity is on record as 82100 pmole c-GMP/mg prot. × 15 minutes. Also, the IC50 in the series with blood platelets came out at 200 nM. In addition, in the series with male rats, the Clinical observations entry was “N.R”, the Hematological parameters entry is recorded as “N.R” and the “Side effects (in words)” value is “no side effects”.
As to `COc1ccc(CCNC(=O)[N-]c2n[n+](-c3cccc(Cl)c3C)no2)cc1OC` [Example 47a, 3-(3-chloro-2-methylphenyl)-1,2,3,4-oxatriazole-5-(N-3,4-dimethoxyphenylethylcarbamoyl)imine], the concentration giving a half-maximal response (EC50) in the series with pre-contracted trachea came to 5200 nM.
With `COc1ccc(C(=O)[N-]c2n[n+](-c3cccc(Cl)c3C)no2)cc1` [Example 53], in the series with pre-contracted trachea, the EC50 was 700 nM.
Take `Cc1c(Cl)cccc1-[n+]1noc([N-]C(=O)c2cccnc2)n1` [Example 54]: the half-maximal effective concentration (EC50) in the series with pre-contracted trachea worked out at 600 nM. Further, the values for the Guanylate cyclase activity in series [1] (0.01 μM) and in series [1] (10 μm (so in the source)) were 8139 pmole c-GMP/mg prot. × 15 minutes and 18693 pmole c-GMP/mg prot. × 15 minutes, respectively.
